Data from BindingDB's records for doi:10.1016/s0960-894x(03)00389-5 (National Institute On Drug Abuse-Intramural Research Program, 2003).

Legend:
[1] = Agonistic activity of quinpirole stimulation of mitogenesis in human Dopamine receptor D3 transfected CHO cells
[2] = Agonistic activity of quinpirole stimulation of mitogenesis in human dopamine D3 transfected CHO cells

Row | EC50 [1] | EC50 [2] | Structure (SMILES)
1 | > 10 µM |  | O=C(NC/C=C/CN1CCN(c2cccc(Cl)c2Cl)CC1)c1ccccc1 [N-{(E)-4-[4-(2,3-Dichloro-phenyl)-piperazin-1-yl]-but-2-enyl}-benzamide]
2 |  | > 10 µM | O=C(NC/C=C\CN1CCN(c2cccc(Cl)c2Cl)CC1)c1ccccc1 [N-{(Z)-4-[4-(2,3-Dichloro-phenyl)-piperazin-1-yl]-but-2-enyl}-benzamide]
